Legend:
[1] = tested on: PC-3 (prostate adenocarcinoma); assay: MTT viability assay, PC-3; format: cell-based; conditions: PC-3, 72 h, MTT; for CC50: read-out: LC50 (the source's name)
Description: (§1) The novel compounds were tested against a panel of different cancer lines: PC-3 (prostate adenocarcinoma), MCF7 (mammary adenocarcinoma), HTB-54 (lung carcinoma), K-562 (chronic myelogenous leukemia) and HT-29 (colorectal adenocarcinoma). Two non-malignant cell lines, BEAS-2B (bronchial epithelial) and 184B5 (mammary epithelial) were also included to evaluate the toxicity of the novel synthesized compounds. The antiproliferative activity was measured with the [3-(4,5-dimethylthiazol-2-yl)-2,5-diphenyltetrazolium bromide] (MTT) assay after 72 h treatment. Six concentrations ranging from 0.1 to 100 μM were tested. MSA is largely known as the main CH3SeH putative precursor and was therefore included as positive control. The following parameters were calculated: GI50 (concentration which reduces the growth by 50%), TGI (concentration completely inhibiting growth) and LC50 (concentration that kills 50% of the cells).
(§2) All cells were purchased from the American Type Culture Collection (ATCC, Barcelona, Spain). HT-29 (colorectal adenocarcinoma), HTB-54 (grade III lung carcinoma), MCF7 (mammary adenocarcinoma), PC-3 (grade IV prostate adenocarcinoma) and K-562 (chronic myelogenous leukemia) were cultured in RPMI (Gibco, Madrid, Spain), 10% FBS (Gibco), 100 units/mL penicillin and 100 μg/mL streptomycin (Gibco). BEAS-2B cell line (normal epithelial lung) was cultured in DMEM (Gibco), 10% FBS, 100 units/mL penicillin and 100 μg/mL streptomycin. 184B5 (normal mammary gland) cell line was cultured in DMEM:F12 supplemented with 5% FBS, 1 × ITS (Lonza, Barcelona, Spain), 100 nM hydrocortisone (Sigma-Aldrich), 2 mM sodium pyruvate (Lonza), 20 ng/mL EGF (Sigma-Aldrich), 0.3 nM trans-retinoic acid (Sigma-Aldrich), 100 units/mL penicillin and 100 µg/mL streptomycin. Cells were cultured at 37 °C under 5% CO2.
(§3) Cell viability after treatment was assessed by the well-known 3-(4,5-dimethyl-thiazol-2-yl)-2,5-diphenyltetrazolium bromide (MTT, Sigma-Aldrich) assay. Briefly, 10,000 cells were seeded in 96-well plates, treated and incubated for 72 h. Dilutions of the compounds in cell medium were freshly prepared from a 0.01 M stock in DMSO. After treatment, 50 μL of MTT solution in PBS (2 mg/mL) were added and cells were incubated for 4 h. Medium was removed and 150 μL of DMSO was added to dissolve the formed formazan crystals. Absorbance was read at 550 nm in a microplate absorbance reader (Sunrise, Tecan, Männedorf, Switzerland).

[2] = tested on: MCF7 (mammary adenocarcinoma); assay: MTT viability assay, MCF7; format: cell-based; conditions: MCF7, 72 h, MTT; for CC50: read-out: LC50 (the source's name)
Description: as §1, §2, §3

[3] = tested on: 184B5 (non-malignant mammary epithelium); assay: MTT viability assay, 184B5; format: cell-based; conditions: 184B5 non-malignant, 72 h, MTT; for CC50: read-out: LC50 (the source's name)
Description: as §1, §2, §3

HTB-54 (lung carcinoma) = assay: MTT viability assay, HTB-54; format: cell-based; conditions: HTB-54, 72 h, MTT; for CC50: read-out: LC50 (the source's name)
Description: as §1, §2, §3

[4] = tested on: BEAS-2B (non-malignant bronchial epithelial); assay: MTT viability assay, BEAS-2B; format: cell-based; conditions: BEAS-2B non-malignant, 72 h, MTT; for CC50: read-out: LC50 (the source's name)
Description: as §1, §2, §3

[5] = tested on: thioredoxin reductase (TrxR1); assay: Thioredoxin reductase activity assay (NADPH consumption); format: biochemical; conditions: 100 nM TrxR1, 227 μM NADPH, TE buffer pH 8, 45 min
Description: The assay was performed as previously described, but in a final volume of 200 μL in a 96-well plate. Reaction started after addition of 133 μL of TE buffer (20 mM Tris, 2 mM EDTA, pH = 8), 0.227 mM NADPH (freshly prepared) to different concentrations of compounds solved in DMSO and TrxR1 (final concentration 100 nM). NADPH consumption was followed measuring absorbance decrease at 340 nm in a VersaMax microplate reader (Molecular Devices, Sunnyvale, CA, USA) over 45 min. A background sample with DMSO without the compounds was included and subtracted from the values.
(§4) Figure 7 Compounds 5 and 15 are substrates for thioredoxin reductase but not for the glutathione-glutaredoxin system. (A) NADPH consumption indicating reduction of compounds 5, 15 or MSA as control by thioredoxin reductase. The reaction mixture contained 100 nM TrxR1, 227 μM NADPH and the corresponding amount of compound in TE buffer (20 mM Tris, 2 mM EDTA pH = 8); (B) NADPH consumption indicating reduction of MSA by glutathione in the presence or absence of glutaredoxin. The reaction mixture contained the corresponding amount of compound, 0.1 M Tris, 2 mM EDTA pH = 8, 0.1 mg/mL BSA, 1 mM GSH, 200 μM NADPH, 0.008 OD/mL yeast GR and 1 μM hGrx1 when required. Only results for MSA are shown, as compounds 5 and 15 were not reduced.

[6] = tested on: glutathione-glutaredoxin (GSH-Grx) system; assay: Glutaredoxin/glutathione assay (NADPH consumption); format: biochemical; conditions: 1 mM GSH, 200 μM NADPH, yeast GR, 1 μM hGrx1 when required, 45 min
Description: The assay was performed as previously described, with minor modifications and adapted for a 96-well plate. A mixture of 0.1 M Tris pH 8, 2 mM EDTA pH = 8, 0.1 mg/mL BSA, 1 mM GSH, 200 μM NADPH, and 0.008 OD/mL yeast GR was prepared (all reagents were purchased from Sigma-Aldrich). Reactions were performed with 1 μM hGrx1 (IMCO Corporation, Stockholm, Sweden) when corresponding and different concentrations of the compounds. A 100 μL mixture was added, and the final volume was adjusted to 110 μL per well. Consumption of NADPH was monitored at A340 on a VersaMax microplate reader (Molecular Devices) for 45 min.
as §4

[7] = Methylselenol (CH3SeH) release by hydrolysis, quantified with DTNB (Ellman's reagent); format: physicochemical; conditions: 100 μM compound, 100 μM DTNB, 100 mM phosphate buffer, 1 mM EDTA, pH 8, followed over 72 h
From the text: The new compounds were designed as CH3SeH precursors. The chemical features of the selenoester functional group facilitate a nucleophilic attack (i.e., with water) which would deliver the CH3SeH residue. In order to verify if CH3SeH could be released from the molecules by hydrolysis and if the rate differed among the compounds, the reaction of CH3SeH with 5,5′-dithiobis(2-nitrobenzoic acid) (DTNB or Ellman’s reagent) in aqueous environment was monitored. Briefly, when the disulfide bridge of DTNB reacts with thiols or selenols, 2-nitro-5-thiobenzoate (TNB^2−) is released and the mixed disulfide or selenylsulfide is formed. Each released CH3SeH produces one yellow TNB^2− species, whose absorbance can be quantified at 412 nm (Figure 2A).
A stock solution of the compounds was prepared in anhydrous DMSO (10 mM). The compounds were placed in a 96-well plate in a final concentration of 100 μM. Reaction started after adding 200 μL of an aqueous 100 mM Na2HPO4 buffer (1 mM EDTA, pH = 8), containing 100 μM of DTNB from a freshly prepared 10 mM ethanolic stock, which were added just before starting the reaction. The DTNB concentration was quantified with a cysteine standard curve ([…]). Blanks for the compounds in the absence of DTNB were also included as well as a blank to measure the slow but spontaneous hydrolysis of DTNB, which was further subtracted from all the values. Absorbance was read at 412 nm in a FLUOstar Omega microplate reader (BMG LabTech, Ortenberg, Germany). Results represent means of triplicate values ± SD.
Figure 2 CH3SeH release rates are dependent on the chemical features of the molecule. Released CH3SeH was quantified through reaction with Ellman’s reagent (DTNB). (A) Proposed reaction between CH3SeH and DTNB; (B) Quantification of TNB^2− at different times. The compounds were tested at 100 μM in 200 μL of 100 mM phosphate buffer (1 mM EDTA, pH = 8). DTNB concentration was also 100 μM. Absorbance was followed at 412 nm over 72 h. A cysteine standard curve (7.5–150 μM) was used to calculate the concentration of TNB^2− over time. Compounds showing less than 15% hydrolysis at 72 h are not included, except for compound 5 as example. Error bars indicate SD of triplicates.

[8] = tested on: K-562 (chronic myelogenous leukemia); assay: MTT viability assay, K-562; format: cell-based; conditions: K-562, 72 h, MTT; for CC50: read-out: LC50 (the source's name)
Description: as §1, §2, §3

[9] = tested on: HT-29 (colorectal adenocarcinoma); assay: MTT viability assay, HT-29; format: cell-based; conditions: HT-29, 72 h, MTT; for CC50: read-out: LC50 (the source's name)
Description: as §1, §2, §3

Row | Compound | GI50 [1] [µM] | TGI [1] [µM] | CC50 [1] [µM] | GI50 [2] [µM] | TGI [2] [µM] | CC50 [2] [µM] | GI50 [3] [µM] | TGI [3] [µM] | CC50 [3] [µM] | GI50 (HTB-54 (lung carcinoma)) [µM] | TGI (HTB-54 (lung carcinoma)) [µM] | CC50 (HTB-54 (lung carcinoma)) [µM] | GI50 [4] [µM] | TGI [4] [µM] | CC50 [4] [µM] | CH3SeH release / hydrolysis rate [7] | GI50 [8] [µM] | TGI [8] [µM] | CC50 [8] [µM] | GI50 [9] [µM] | also measured
1 | C[Se](=O)O [MSA, Methylseleninic acid, reference compound] | 4.4 ± 1.1 | 8.5 ± 2.4 | 47.6 ± 4.6 | 1.5 ± 0.5 | 5.4 ± 0.5 | 9.4 ± 1 | 5.3 ± 1.2 | 9.2 ± 1.3 | 13.1 ± 1.3 | 3.5 ± 0.1 | 6.9 ± 0.2 | 19.9 ± 1.2 | 3.7 ± 0.7 | 6.2 ± 1.2 | 8.7 ± 1.8 | – | – | – | – | – | reduction by TrxR1 (NADPH consumption) [5]: consistently reduced; reduction by GSH in the presence or absence of glutaredoxin (NADPH consumption) [6]: consistently reduced
2 | Methyl 3-quinolinecarboselenoate [Compound 9] | 5.9 ± 0.5 | 10.0 ± 1.9 | 84.1 ± 8.9 | 4.4 ± 0.8 | 8.1 ± 1.2 | 48 ± 7.5 | 3.7 ± 0.5 | 6.2 ± 0.4 | 8.6 ± 0.4 | 7.8 ± 1.2 | 33.0 ± 4.5 | 69.2 ± 2.7 | 4.1 ± 1 | 7.1 ± 4.5 | 15.3 ± 9.1 | more sustained release | 39.5 ± 3.1 | 72.6 ± 4.1 | > 100 | 3.4 ± 0.2 | TGI [9]: 7.0 ± 0.2 µM; CC50 [9]: 37.2 ± 5 µM
3 | Methyl 4-nitrobenzoselenoate [Compound 1] | 5.8 ± 0.7 | 10.4 ± 2.3 | 75.7 ± 3.3 | 4.1 ± 0.5 | 7.9 ± 0.9 | 45 ± 4.6 | 3.4 ± 0.4 | 6.4 ± 1.1 | 9.3 ± 0.6 | – | 50.5 ± 5.1 | 78.6 ± 2.9 | 3.8 ± 0.3 | 6.4 ± 0.4 | 9 ± 0.7 | more sustained release | 50.1 ± 2.3 | 85.3 ± 4.9 | > 100 | 5 ± 0.7 | TGI [9]: 9.3 ± 1.4 µM; CC50 [9]: 87.2 ± 5 µM
4 | Methyl 5-isoxazolecarboselenoate [Compound 6] | 4.5 ± 1.3 | – | 61.5 ± 14 | 3.5 ± 1 | 8.8 ± 0.7 | 71.9 ± 3.2 | 2.7 ± 0.2 | 6.0 ± 0.4 | 9.3 ± 2 | 9 ± 2.8 | 43.9 ± 3.9 | 82 ± 1.3 | 3 ± 0.9 | 5.6 ± 0.7 | 8.2 ± 0.5 | completely hydrolyzed within the first two hours of incubation | 18.5 ± 7.1 | 58.3 ± 3.5 | 98.1 ± 0.7 | 5 ± 0.8 | TGI [9]: 15.1 ± 6.7 µM; CC50 [9]: 90.8 ± 15 µM
5 | Methyl 6-bromochromone-2-carboselenoate [Compound 11] | 5.3 ± 1.1 | 17.1 ± 5.0 | 66.2 ± 2.4 | 4.2 ± 0.7 | 8.2 ± 1.1 | > 100 | 3.3 ± 0.1 | 6.7 ± 0.9 | 14.5 ± 4.5 | 9.4 ± 3.5 | 52.3 ± 2.9 | > 100 | 2.4 ± 0.9 | 5.0 ± 0.8 | 7.6 ± 0.7 | completely hydrolyzed within the first two hours of incubation | 81.9 ± 4 | >100 | > 100 | 4.9 ± 0.7 | TGI [9]: 9.6 ± 3 µM; CC50 [9]: 74.4 ± 4.2 µM

Source: paper PMC6152192, “Novel Methylselenoesters as Antiproliferative Agents” (Molecules : A Journal of Synthetic Chemistry and Natural …, 2017)
